Assay results published in ChEMBL document CHEMBL1201862, “PubChem BioAssay data set” (2004).
Calls of active or inactive are those of the source.

How the values were obtained:
[1] = tested on: Streptococcus sp. 'group A'; assay: Streptococcus pyogenes SK(-)GAS viability under kanamycin – luminescence, BacTiterGlo, confirmation, counter-screen for streptokinase expression inhibitor project, dose response (AID 1900); assay type: functional, organism-based
Streptokinase A = target: T1, Streptokinase A (Streptococcus pyogenes serotype M1, UniProt P10520); assay: viability-normalized secreted streptokinase activity reduction – plasminogen activation absorbance, OD405, dose response (AID 1914); assay type: functional, Streptococcus pyogenes M1 GAS;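 further: secreted streptokinase activity via plasminogen activation per viability signal from cell pellet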
T1 sequence (P10520 whole entry): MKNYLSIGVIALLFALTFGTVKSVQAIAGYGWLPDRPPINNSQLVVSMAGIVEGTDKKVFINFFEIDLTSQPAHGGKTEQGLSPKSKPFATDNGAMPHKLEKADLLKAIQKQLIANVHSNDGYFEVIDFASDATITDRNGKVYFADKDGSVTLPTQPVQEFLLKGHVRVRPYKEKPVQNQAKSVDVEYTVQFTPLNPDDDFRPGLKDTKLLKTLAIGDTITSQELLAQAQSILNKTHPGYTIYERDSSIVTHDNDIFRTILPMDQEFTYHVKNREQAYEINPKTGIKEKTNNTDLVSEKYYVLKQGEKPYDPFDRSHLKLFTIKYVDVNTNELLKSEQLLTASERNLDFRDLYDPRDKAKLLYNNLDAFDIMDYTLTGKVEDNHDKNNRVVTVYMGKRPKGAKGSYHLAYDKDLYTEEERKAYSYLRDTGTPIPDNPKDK

Streptococcus = assay: GAS UMAA2166 growth inhibition – luminescence, BacTiterGlo, counter-screen for streptokinase expression inhibitor project, dose response (AID 1915); assay type: functional, organism-based;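 further: potency for reduction of bacterial viability or growth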
[2] = target: T2, Corticotropin-releasing factor receptor 2/Corticotropin-releasing factor-binding protein (Homo sapiens, UniProt P24387+Q13324); assay: Dose Response confirmation of uHTS hits for small molecule antagonists of the CRF-binding protein and CRF-R2 receptor complex.; assay type: functional; conditions: read-out: IC50_Mean
T2 sequence (Q13324 whole entry): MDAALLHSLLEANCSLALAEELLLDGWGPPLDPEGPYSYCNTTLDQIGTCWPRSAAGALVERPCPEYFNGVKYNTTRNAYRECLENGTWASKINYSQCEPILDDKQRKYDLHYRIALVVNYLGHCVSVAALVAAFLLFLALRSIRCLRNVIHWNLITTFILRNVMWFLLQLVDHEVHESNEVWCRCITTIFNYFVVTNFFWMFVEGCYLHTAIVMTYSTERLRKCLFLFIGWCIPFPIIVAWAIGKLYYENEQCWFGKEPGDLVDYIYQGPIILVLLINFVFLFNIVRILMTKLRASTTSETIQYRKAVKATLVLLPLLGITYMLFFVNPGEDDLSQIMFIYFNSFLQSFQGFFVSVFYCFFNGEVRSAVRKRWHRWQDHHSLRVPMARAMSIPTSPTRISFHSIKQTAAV
T2 sequence (P24387 whole entry): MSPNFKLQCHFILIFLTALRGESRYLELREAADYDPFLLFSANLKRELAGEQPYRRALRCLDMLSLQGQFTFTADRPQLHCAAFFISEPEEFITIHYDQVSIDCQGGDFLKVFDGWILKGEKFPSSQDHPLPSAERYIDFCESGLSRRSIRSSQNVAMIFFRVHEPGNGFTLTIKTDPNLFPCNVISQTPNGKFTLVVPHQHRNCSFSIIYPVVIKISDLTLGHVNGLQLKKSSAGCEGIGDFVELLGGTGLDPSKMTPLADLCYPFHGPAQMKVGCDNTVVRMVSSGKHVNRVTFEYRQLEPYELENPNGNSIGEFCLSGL

[3] = target: T2, Corticotropin-releasing factor receptor 2/Corticotropin-releasing factor-binding protein; assay: activators of CRF receptor 2 with binding protein – uHTS hits, confirmation (AID 602473); assay type: functional; conditions: read-out: EC50_Mean
[4] = blockers of CRF-binding protein–CRF-R2 complex – cell-based, uHTS hits, 384-well, dose response (AID 651639); assay type: functional, Homo sapiens; conditions: read-out: IC50_Mean
Cytochrome P450 2C19 = Cytochrome P450 2C19 (Homo sapiens, UniProt P33261); assay: Cytochrome panel assay with activity outcomes. Panel member name: p450-cyp2c19 Compounds with AC50 equal or less than 10 uM are considered active; assay type: functional; conditions: read-out: AC50
Cytochrome P450 3A4 = Cytochrome P450 3A4 (Homo sapiens, UniProt P08684);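 further: CYP3A4 tested as one member of a cytochrome P450 panel screen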
Protein skinhead-1 = target: T3, Protein skinhead-1 (Caenorhabditis elegans, UniProt P34707); assay type: functional
T3 sequence (P34707 whole entry): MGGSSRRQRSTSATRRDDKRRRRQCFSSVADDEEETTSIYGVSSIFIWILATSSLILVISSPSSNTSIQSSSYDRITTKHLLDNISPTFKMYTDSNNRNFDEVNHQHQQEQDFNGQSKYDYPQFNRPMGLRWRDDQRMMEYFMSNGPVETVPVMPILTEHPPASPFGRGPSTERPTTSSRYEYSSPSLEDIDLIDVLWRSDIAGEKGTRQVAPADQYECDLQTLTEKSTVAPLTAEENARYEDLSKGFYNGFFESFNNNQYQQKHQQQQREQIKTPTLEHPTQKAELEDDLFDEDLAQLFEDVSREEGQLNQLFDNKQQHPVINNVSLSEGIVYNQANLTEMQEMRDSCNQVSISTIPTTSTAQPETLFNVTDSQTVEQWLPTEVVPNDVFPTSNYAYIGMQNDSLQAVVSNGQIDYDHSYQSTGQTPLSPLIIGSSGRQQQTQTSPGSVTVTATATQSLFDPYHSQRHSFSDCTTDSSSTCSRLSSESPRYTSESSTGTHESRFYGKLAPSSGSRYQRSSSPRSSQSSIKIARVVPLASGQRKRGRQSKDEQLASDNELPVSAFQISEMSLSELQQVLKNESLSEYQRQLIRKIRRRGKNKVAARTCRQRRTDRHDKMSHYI

[5] = target: T4, Long-chain-fatty-acid--AMP ligase FadD28 (Mycobacterium tuberculosis, UniProt P9WQ59); assay: Fluorescence polarization aasay to screen for inhibitors that compete for the binding of FadD28 to a bisubstrate Measured in Biochemical System Using Plate Reader - 2147-01_Inhibitor_Dose_CherryPick_Activity.; assay type: functional, Mycobacterium tuberculosis H37Rv
T4 sequence (P9WQ59 whole entry): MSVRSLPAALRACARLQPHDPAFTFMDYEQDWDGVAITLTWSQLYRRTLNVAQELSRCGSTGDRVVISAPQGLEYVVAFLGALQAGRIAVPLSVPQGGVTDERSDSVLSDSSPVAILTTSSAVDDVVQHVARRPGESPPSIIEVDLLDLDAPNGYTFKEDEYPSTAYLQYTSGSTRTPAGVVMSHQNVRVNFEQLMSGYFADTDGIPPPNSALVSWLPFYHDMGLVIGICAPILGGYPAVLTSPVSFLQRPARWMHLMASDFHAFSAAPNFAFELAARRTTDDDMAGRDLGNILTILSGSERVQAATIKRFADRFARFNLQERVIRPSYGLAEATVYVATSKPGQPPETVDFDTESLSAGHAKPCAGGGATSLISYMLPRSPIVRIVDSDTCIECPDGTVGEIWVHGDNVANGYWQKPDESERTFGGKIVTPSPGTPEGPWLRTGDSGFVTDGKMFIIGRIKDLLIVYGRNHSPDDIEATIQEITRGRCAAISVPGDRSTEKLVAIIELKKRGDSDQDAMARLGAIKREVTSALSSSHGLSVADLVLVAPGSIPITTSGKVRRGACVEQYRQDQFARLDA

Vero = assay: viability of Vero cells under compound – cytotoxicity control for flavivirus capping enzyme inhibitors (AID 588742); assay type: functional; conditions: Chlorocebus sabaeus
[6] = target: Glyceraldehyde-3-phosphate dehydrogenase (Homo sapiens, UniProt P04406)
[7] = target: T5, Alkaline phosphatase, tissue-nonspecific isozyme (Homo sapiens, UniProt P05186); assay: potency against alkaline phosphatase TNAP – biochemical, luminescent, dose response, SAR follow-up (AID 1056)
T5 sequence (P05186 whole entry): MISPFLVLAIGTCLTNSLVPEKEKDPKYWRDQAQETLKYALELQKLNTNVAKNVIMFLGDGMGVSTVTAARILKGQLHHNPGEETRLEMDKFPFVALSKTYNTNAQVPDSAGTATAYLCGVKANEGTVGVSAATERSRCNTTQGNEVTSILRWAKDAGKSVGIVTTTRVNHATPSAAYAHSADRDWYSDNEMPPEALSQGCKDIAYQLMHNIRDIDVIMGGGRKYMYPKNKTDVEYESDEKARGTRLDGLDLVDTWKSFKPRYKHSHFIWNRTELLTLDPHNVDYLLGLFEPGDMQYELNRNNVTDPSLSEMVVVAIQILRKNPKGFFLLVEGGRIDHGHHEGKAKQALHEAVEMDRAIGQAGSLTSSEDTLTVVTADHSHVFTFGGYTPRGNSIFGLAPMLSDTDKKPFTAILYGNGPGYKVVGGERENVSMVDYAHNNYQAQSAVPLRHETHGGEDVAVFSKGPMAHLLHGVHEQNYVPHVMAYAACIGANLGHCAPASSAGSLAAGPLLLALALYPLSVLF

[8] = target: T6, Microphthalmia-associated transcription factor (Homo sapiens, UniProt O75030); assay: reducers of TRPM1 reporter luminescence, concentration series – cell-based, SK-MEL-5, cherry-picked, set 3, MITF inhibitor project, dose response (AID 493073); assay type: functional;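 further: SK-MEL-5 melanoma cells with luciferase driven by the MITF target TRPM1 promoter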
T6 sequence (O75030 whole entry): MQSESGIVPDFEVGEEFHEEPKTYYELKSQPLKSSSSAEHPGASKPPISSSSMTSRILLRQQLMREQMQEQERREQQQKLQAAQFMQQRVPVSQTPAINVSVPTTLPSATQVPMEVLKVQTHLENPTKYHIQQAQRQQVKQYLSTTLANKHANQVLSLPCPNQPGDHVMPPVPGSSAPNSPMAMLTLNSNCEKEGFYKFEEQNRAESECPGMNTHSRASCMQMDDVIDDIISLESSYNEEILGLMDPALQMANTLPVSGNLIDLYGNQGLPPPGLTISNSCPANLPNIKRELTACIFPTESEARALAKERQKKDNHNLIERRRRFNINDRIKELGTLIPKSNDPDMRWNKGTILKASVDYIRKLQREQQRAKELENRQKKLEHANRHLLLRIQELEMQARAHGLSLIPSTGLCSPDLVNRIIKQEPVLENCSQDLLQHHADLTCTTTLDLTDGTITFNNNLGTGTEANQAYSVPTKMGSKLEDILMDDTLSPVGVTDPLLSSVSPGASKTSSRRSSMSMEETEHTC

[9] = A549 cell cytotoxicity, dose response, cytotoxicity control, plate reader, cherry-pick, antagonist series (AID 743412); assay type: functional, cell-based
[10] = toxicity toward HepG2 liver cells – cell-based, plate reader, cherry-pick, antagonist series, cytotoxicity control, dose response (AID 743416); assay type: functional
[11] = blockers of bursicon-stimulated LGR2 cAMP reporter – cell-based, HEK293, CRE-luciferase reporter, cherry pick, set 2, dose response (AID 743343); assay type: functional;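 further: transfected cells were stimulated with diluted bursicon conditioned medium after compound addition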
[12] = blockade of melanocortin 4 receptor signaling – cell-based, plate reader, cherry pick, counter-screen for LGR2 antagonist project, dose response (AID 743444); assay type: functional;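 further: transfected HEK 293 cells stimulated with alpha-MSH peptide; potency of inhibitors of the alpha-MSH evoked signal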
[13] = viability loss in HEK293 cells – cell-based, plate reader, cherry-picked samples, cytotoxicity control, dose response (AID 743446); assay type: functional

Chain of Cytochrome P450 3A4 (P08684 whole entry): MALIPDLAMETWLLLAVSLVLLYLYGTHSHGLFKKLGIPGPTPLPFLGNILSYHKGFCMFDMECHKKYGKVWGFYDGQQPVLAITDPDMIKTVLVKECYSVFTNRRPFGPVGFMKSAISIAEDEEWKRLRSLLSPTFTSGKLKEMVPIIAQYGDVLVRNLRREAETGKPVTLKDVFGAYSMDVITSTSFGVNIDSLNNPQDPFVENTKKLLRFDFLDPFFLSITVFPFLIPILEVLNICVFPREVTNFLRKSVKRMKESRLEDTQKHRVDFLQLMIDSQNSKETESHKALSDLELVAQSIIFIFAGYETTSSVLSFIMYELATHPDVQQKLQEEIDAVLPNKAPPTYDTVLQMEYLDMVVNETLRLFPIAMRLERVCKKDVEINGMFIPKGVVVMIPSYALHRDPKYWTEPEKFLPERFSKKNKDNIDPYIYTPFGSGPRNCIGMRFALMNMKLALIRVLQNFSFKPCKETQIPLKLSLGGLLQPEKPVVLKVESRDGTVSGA
Chain of Glyceraldehyde-3-phosphate dehydrogenase (P04406 whole entry): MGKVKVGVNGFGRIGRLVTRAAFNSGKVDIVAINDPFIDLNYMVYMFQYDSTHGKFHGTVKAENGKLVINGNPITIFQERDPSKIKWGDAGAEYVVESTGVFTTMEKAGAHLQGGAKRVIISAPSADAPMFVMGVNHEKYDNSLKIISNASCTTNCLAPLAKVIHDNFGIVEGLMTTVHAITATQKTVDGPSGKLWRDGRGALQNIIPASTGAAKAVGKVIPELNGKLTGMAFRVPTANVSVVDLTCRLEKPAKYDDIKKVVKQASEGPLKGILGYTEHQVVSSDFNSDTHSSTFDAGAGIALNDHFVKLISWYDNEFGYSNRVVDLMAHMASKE
Chain of Cytochrome P450 2C19 (P33261 whole entry): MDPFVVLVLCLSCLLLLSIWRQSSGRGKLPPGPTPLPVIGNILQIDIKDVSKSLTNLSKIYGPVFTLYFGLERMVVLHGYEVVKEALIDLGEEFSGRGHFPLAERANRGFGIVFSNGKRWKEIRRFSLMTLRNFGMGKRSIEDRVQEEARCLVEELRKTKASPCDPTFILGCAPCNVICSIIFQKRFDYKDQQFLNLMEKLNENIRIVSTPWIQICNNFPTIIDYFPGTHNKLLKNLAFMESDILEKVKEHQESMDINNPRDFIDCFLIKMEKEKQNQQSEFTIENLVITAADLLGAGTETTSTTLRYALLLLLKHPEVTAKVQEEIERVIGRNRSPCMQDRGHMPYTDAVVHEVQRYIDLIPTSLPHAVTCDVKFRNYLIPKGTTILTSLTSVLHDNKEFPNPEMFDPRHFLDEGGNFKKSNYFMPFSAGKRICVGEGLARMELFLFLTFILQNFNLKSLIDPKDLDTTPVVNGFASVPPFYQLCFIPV

COc1ccc(-c2c(C(F)(F)F)nn3c(O)cc(-c4ccccc4)nc23)cc1
EC50 [1]: 8.01 µM (active) | EC50 (Streptokinase A): > 150 µM (not active) | EC50 (Streptococcus): 11.6 µM (active) | IC50 [2]: 4.6 µM (active) | EC50 [3]: > 53 µM (inactive) | IC50 [4]: 15.7 µM (active)

O=C(c1ccco1)N1CCC2(CC1)CN(c1ncccn1)C2
AC50 (Cytochrome P450 2C19): 25.1 µM (inconclusive) | AC50 (Cytochrome P450 3A4): inconclusive

O=C(O)c1cnc2ccccc2n1
IC50 (Protein skinhead-1): > 100 µM (inactive)

CC(C)c1ccc(NC(=O)C(=O)C2C(=O)Nc3ccccc32)cc1 (configuration not stated)
AC50 [5]: 98.2 µM (active)

O=C1C(NS(=O)(=O)c2cccs2)=C(N2CCN(c3cccc(Cl)c3)CC2)C(=O)c2ccccc21
CC50 (Vero): > 40 µM (active)

COc1cccc(NC(=O)CN2CCc3ccccc3C2)c1
IC50 (Protein skinhead-1): > 100 µM (inactive)

Oc1ccc(Br)cc1/C=N/n1c(S)nnc1C1CCCCC1
AC50 [5]: 8.32 µM (active)

CC(=O)[C@H]1CC[C@H]2[C@@H]3C=CC4=CC(=O)CC[C@@]4(C)[C@H]3CC[C@]12C
AC50 (Cytochrome P450 3A4): inconclusive

COC(=O)c1cc(-c2ccc([N+](=O)[O-])cc2)[nH]n1
IC50 [6]: > 100 µM (not active) | IC50 [7]: > 100 µM (inactive)

Cc1ccc(-c2cc3onc(-c4ccccc4)c3c(=O)n2C)cc1
AC50 [8]: 9.76 µM (active) | AC50 [9]: > 52 µM (inactive) | AC50 [10]: 27.6 µM (active) | AC50 [11]: 1.67 µM (active) | AC50 [12]: 3.13 µM (active) | AC50 [13]: 43.6 µM (active)
